Test results reported in US5583104A, “Treatment of proliferation of bile duct epithelium” (Mayo Foundation for Medical Research and Education, priority 1993, dated 1996).

Tested on: human cholangiocarcinoma cell line SK-ChA-1
Experiment: Anti-proliferative MTT assay on human cholangiocarcinoma cell line SK-ChA-1
Format: cell-based
Settings: for inhibiting the growth of the human cholangiocarcinoma cell line: FIGS. 1 and 2, both experiments, non-dose dependent; for Percent Protection, Day 8: first experiment (Table I); for Percent Protection Day 4: second experiment (Table II)
Experimental: The human cholangiocarcinoma cell line SK-ChA-1 was grown from malignant ascites of a patient with primary adenocarcinoma of the extrahepatic biliary tree. See Knuth, et al. J. of Hepatology 1:579 (1985), hereby incorporated by reference.
SK-ChA-1 cells were plated (100 μl) into 96-well culture plates (Falcon) at a density of 50,000 cells/ml in Dulbecco's modified Eagle's medium (DMEM/HAMSF12 (50:50)) with 2% fetal calf serum (FCS, Hyclone) and antibiotics (penicillin 100 IU/ml, streptomycin 100 μg/ml and amphotericin B 2.5 μg/ml). After 18 hours, the medium was replaced with fresh medium with or without the two test drugs, natural somatostatin-14 and the somatostatin agonist octreotide. The experiments were performed in triplicate. Wells without the addition of any test drug served as normal controls. All media, with the appropriate concentration of test drug, were changed every two days.
The amount of viable cells were assayed every two days using 3-(4,5-[…])-2,5-diphenyl tetrazolium (MTT) according to method published by Tada, J. Immunol. Meth. 93:157 (1986), hereby incorporated by reference. Optical density was read by a 96-well automatic microplate reader (molecular Devices) at a test wavelength of 570 nm and a reference wavelength of 630 nm. An experiment had validated the correlation of the MTT assay (r=0.975, p=0.004) with a wide range of cell concentrations (3,000 to 330,000 cells/ml) counted with the hemocytometer. Cell proliferation curves with respect to time and test drug concentration were plotted with control wells as the baseline for comparison.
Two experiments were performed using this assay. […] The second experiment was performed at concentrations of 10^-5 M to 10^-10 M (in one log increments) and assayed every two days until day 8.

[1] = drug concentration 1 × 10^-5 M, MTT viable cells vs control wells
[2] = drug concentration 1 × 10^-10 M

Row | Structure (SMILES) | inhibiting the growth of the human cholangiocarcinoma cell line | Percent Protection, Day 8 [1] [%] | Percent Protection, Day 8 (drug concentration 1 × 10^-6 M) [%] | Percent Protection, Day 8 (drug concentration 1 × 10^-7 M) [%] | Percent Protection, Day 8 (drug concentration 1 × 10^-8 M) [%] | Percent Protection Day 4 (drug concentration 1 × 10^-5 M) [%] | Percent Protection Day 4 (drug concentration 1 × 10^-6 M) [%] | Percent Protection Day 4 (drug concentration 1 × 10^-7 M) [%] | Percent Protection Day 4 (drug concentration 1 × 10^-8 M) [%] | Percent Protection Day 4 (drug concentration 1 × 10^-9 M) [%] | Percent Protection Day 4 [2] [%]
1 | C[C@@H](O)[C@@H]1NC(=O)[C@H](CCCCN)NC(=O)[C@@H](Cc2c[nH]c3ccccc23)NC(=O)[C@H](Cc2ccccc2)NC(=O)[C@@H](NC(=O)[C@H](N)Cc2ccccc2)CSSC[C@@H](C(=O)N[C@H](CO)[C@@H](C)O)NC1=O [Octreotide, H-D-Phe-Cys-Phe-D-Trp-Lys-Thr-Cys-threoninol] | effective in inhibiting the growth | 79.1 | 92.2 | 78.4 | 61.0 | 62.6 | 52.9 | 44.4 | 46.8 | 61.7 | 50.4
2 | C[C@H](N)C(=O)NCC(=O)N[C@H]1CSSC[C@@H](C(=O)O)NC(=O)[C@H](CO)NC(=O)[C@H]([C@@H](C)O)NC(=O)[C@H](Cc2ccccc2)NC(=O)[C@H]([C@@H](C)O)NC(=O)[C@H](CCCCN)NC(=O)[C@H](Cc2c[nH]c3ccccc23)NC(=O)[C@H](Cc2ccccc2)NC(=O)[C@H](Cc2ccccc2)NC(=O)[C@H](CC(N)=O)NC(=O)[C@H](CCCCN)NC1=O [Somatostatin] | effective in inhibiting the growth | 94.9 | 66.8 | 89.9 | – | 54.3 | 47.5 | 42.6 | 50.2 | 50.4 | 62.3
